Data reported in patent US20240066136A1, “MODIFIED PROTEINS AND PROTEIN DEGRADERS” (Cullgen (Shanghai), Inc., priority 2020, published 2024).

Target: Human DDB1 (Homo sapiens (Human), UniProt Q16531)
Test: Surface plasmon resonance (SPR) binding assay to immobilized His-DDB1
Conditions: SPR, steady state affinity model, 25° C.; read-out: Binding (DDB1 binder activities, Kd)
Experimental: The binding affinities of heterobifunctional compounds to DDB1 were determined by SPR assay. Purified His-DDB1 proteins were immobilized on a CM5 sensor chip, and a dose range of compound solutions were injected in multi-cycle kinetic format. Data were fit to steady state model and gave equivalent dissociation constants (KD).
Protein Expression and Purification. Human DDB1 (UniPro: Q16531) coding sequences were cloned into pFastBacHTB vector and were expressed in High5 cells using Bac-to-Bac baculovirus expression system (Thermo Fisher Scientific). […] DDB1 proteins were obtained from supernatant of cell lysates and purified through sequential application of Ni affinity (Ni-NTA column. Bio-Rad), and size-exclusion (Superdex 200 16/600GL column, GE Healthcare) column chromatography.
Surface plasmon resonance (SPR) binding assay. All SPR studies were performed on a Biacore X100 plus or T200 instrument (GE Healthcare). Immobilization of purified His-DDB1 was carried out at 25° C. using a CM5 sensor chip. The surface was pre-equilibrated in HBS-EP running buffer (10 mM HEPES, pH7.4, 150 mM NaCl, 3 mM EDTA, 0.05% P20), then activated with EDC/NHS. His-DDB1 proteins were immobilized by amine coupling to a density of 11,000-13,000 resonance units (RUs) on flow cell FC2, whereas flow cell FC1 was used as reference. Both DDB1 immobilized and reference surfaces were deactivated with 1M ethanolamine.
All interaction experiments were performed at 25° C. […] Compound Solutions were injected individually in multi-cycle kinetic format without regeneration (flow rate […], association time 120 s, dissociation time 120 s). Sensorgrams from reference surfaces and blank injections were subtracted from the raw data (double-referencing) and the data was solvent-corrected prior to analysis. All data were fit to steady state affinity model using Biacore Evaluation Software and gave equivalent dissociation constants (KD).

Human DDB1, sequence (Q16531 whole entry): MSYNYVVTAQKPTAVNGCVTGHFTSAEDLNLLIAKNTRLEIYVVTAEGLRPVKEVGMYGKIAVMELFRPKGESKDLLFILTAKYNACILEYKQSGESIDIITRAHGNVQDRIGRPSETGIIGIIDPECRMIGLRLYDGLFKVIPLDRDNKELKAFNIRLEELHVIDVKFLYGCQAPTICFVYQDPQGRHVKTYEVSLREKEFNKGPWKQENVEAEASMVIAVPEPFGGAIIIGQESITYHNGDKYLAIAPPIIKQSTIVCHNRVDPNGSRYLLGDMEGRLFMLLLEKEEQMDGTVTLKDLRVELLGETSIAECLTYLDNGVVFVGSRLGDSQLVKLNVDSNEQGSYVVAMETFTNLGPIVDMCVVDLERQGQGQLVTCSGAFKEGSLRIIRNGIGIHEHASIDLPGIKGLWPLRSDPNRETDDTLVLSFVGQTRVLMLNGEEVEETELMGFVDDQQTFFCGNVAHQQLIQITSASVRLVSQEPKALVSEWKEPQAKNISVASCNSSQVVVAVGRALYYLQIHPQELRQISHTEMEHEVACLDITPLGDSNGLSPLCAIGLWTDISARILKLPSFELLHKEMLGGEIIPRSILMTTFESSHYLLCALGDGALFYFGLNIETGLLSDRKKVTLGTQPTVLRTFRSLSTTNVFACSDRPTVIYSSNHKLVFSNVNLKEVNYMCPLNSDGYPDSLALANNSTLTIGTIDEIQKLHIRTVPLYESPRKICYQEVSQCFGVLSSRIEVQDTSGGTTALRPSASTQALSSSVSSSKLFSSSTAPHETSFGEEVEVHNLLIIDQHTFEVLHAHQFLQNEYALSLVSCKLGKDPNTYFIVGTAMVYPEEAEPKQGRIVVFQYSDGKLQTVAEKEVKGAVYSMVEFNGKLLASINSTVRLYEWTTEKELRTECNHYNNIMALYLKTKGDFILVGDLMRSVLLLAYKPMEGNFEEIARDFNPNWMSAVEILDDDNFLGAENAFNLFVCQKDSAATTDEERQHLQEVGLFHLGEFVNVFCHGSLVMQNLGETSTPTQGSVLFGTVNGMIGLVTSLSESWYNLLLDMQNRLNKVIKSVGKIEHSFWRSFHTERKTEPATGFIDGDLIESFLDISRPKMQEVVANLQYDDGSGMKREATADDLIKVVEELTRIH

Row | SMILES | Kd [µM]
1 | CC(=O)Nc1ccccc1C(=O)Nc1nc(-c2ccccc2)cs1 [B-46, 2-acetamido-N-(4-phenylthiazol-2-yl)benzamide] | 20 to 100
2 | CC(=O)Nc1ccccc1C(=O)Nc1ncc(S(C)(=O)=O)s1 [B-47, 2-Acetamido-N-(5-(methylsulfonyl)thiazol-2-yl)benzamide] | > 100
3 | CC(=O)Nc1ccccc1C(=O)Nc1nc(S(C)(=O)=O)cs1 [B-48, 2-Acetamido-N-(4-(methylsulfonyl)thiazol-2-yl)benzamide] | > 100
4 | CC(=O)Nc1ccccc1C(=O)Nc1ccc([N+](=O)[O-])cn1 [B-53, 2-Acetamido-N-(5-nitropyridin-2-yl)benzamide] | 20 to 100
5 | CC(=O)Nc1ccccc1C(=O)Nc1ccc(Cl)cn1 [B-54, 2-Acetamido-N-(5-chloropyridin-2-yl)benzamide] | 20 to 100
6 | CC(=O)Nc1ccccc1C(=O)Nc1ccc(Br)cn1 [B-55, 2-Acetamido-N-(5-bromopyridin-2-yl)benzamide] | 20 to 100
7 | CC(=O)Nc1ccccc1C(=O)Nc1ncccn1 [B-56, 2-acetamido-N-(pyrimidin-2-yl)benzamide] | > 100
8 | CC(=O)Nc1ccccc1C(=O)Nc1ccncn1 [B-57, 2-acetamido-N-(pyrimidin-4-yl)benzamide] | 20 to 100
9 | CC(=O)Nc1ccccc1C(=O)Nc1ccc(Cl)cc1 [B-58, 2-Acetamido-N-(4-chlorophenyl)benzamide] | 20 to 100
10 | CC(=O)Nc1ccccc1C(=O)Nc1ccc(Br)cc1 [B-59, 2-Acetamido-N-(4-bromophenyl)benzamide] | 20 to 100
11 | CC(=O)Nc1ccccc1C(=O)Nc1ccc(I)cc1 [B-60, 2-Acetamido-N-(4-iodophenyl)benzamide] | 20 to 100
12 | CC(C)C(=O)Nc1ccccc1C(=O)Nc1ncc([N+](=O)[O-])s1 [B-61, 2-Isobutyramido-N-(5-nitrothiazol-2-yl)benzamide] | 20 to 100
13 | O=C(Nc1ncc([N+](=O)[O-])s1)c1ccccc1NC(=O)C1CC1 [B-62, 2-(Cyclopropanecarboxamido)-N-(5-nitrothiazol-2-yl)benzamide] | 20 to 100
14 | O=C(Nc1ccccc1C(=O)Nc1ncc([N+](=O)[O-])s1)c1ccccc1 [B-63, 2-Benzamido-N-(5-nitrothiazol-2-yl)benzamide] | > 100
15 | CC(=O)N(C)c1ccccc1C(=O)Nc1ncc([N+](=O)[O-])s1 [B-64, 2-(N-Methylacetamido)-N-(5-nitrothiazol-2-yl)benzamide] | 20 to 100
16 | COC(=O)Nc1ccccc1C(=O)Nc1ncc([N+](=O)[O-])s1 [B-65, methyl (2-((5-nitrothiazol-2-yl)carbamoyl)phenyl)carbamate] | 20 to 100
17 | CNC(=O)Nc1ccccc1C(=O)Nc1ncc([N+](=O)[O-])s1 [B-66, 2-(3-methylureido)-N-(5-nitrothiazol-2-yl)benzamide] | < 20
18 | CS(=O)(=O)Nc1ccccc1C(=O)Nc1ncc([N+](=O)[O-])s1 [B-67, 2-(methylsulfonamido)-N-(5-nitrothiazol-2-yl)benzamide] | 20 to 100
19 | CNc1ccccc1C(=O)Nc1ncc([N+](=O)[O-])s1 [B-68, 2-(Methylamino)-N-(5-nitrothiazol-2-yl)benzamide] | 20 to 100
20 | CN(C)c1ccccc1C(=O)Nc1ncc([N+](=O)[O-])s1 [B-69, 2-(dimethylamino)-N-(5-nitrothiazol-2-yl)benzamide] | > 100
21 | CC(C)Nc1ccccc1C(=O)Nc1ncc([N+](=O)[O-])s1 [B-70, 2-(Isopropylamino)-N-(5-nitrothiazol-2-yl)benzamide] | < 20
22 | O=C(Nc1ncc([N+](=O)[O-])s1)c1ccccc1NC1CC1 [B-71, 2-(cyclopropylamino)-N-(5-nitrothiazol-2-yl)benzamide] | 20 to 100
23 | COc1ccccc1C(=O)Nc1ncc([N+](=O)[O-])s1 [B-73, 2-methoxy-N-(5-nitrothiazol-2-yl)benzamide] | > 100
24 | CC(C)Oc1ccccc1C(=O)Nc1ncc([N+](=O)[O-])s1 [B-74, 2-Isopropoxy-N-(5-nitrothiazol-2-yl)benzamide] | < 20
25 | O=C(Nc1ncc([N+](=O)[O-])s1)c1ccccc1OC1CC1 [B-75, 2-Cyclopropoxy-N-(5-nitrothiazol-2-yl)benzamide] | > 100

Row | SMILES | Kd [µM]
26 | O=C(Nc1ncc([N+](=O)[O-])s1)c1ccccc1OC(F)(F)F [B-77, N-(5-nitrothiazol-2-yl)-2-(trifluoromethoxy)benzamide] | > 100
27 | COC(=O)Oc1ccccc1C(=O)Nc1ncc([N+](=O)[O-])s1 [B-78, Methyl (2-((5-nitrothiazol-2-yl)carbamoyl)phenyl) carbonate] | 20 to 100
28 | NS(=O)(=O)c1ccccc1C(=O)Nc1ncc([N+](=O)[O-])s1 [B-80, N-(5-Nitrothiazol-2-yl)-2-sulfamoylbenzamide] | 20 to 100
29 | CNS(=O)(=O)c1ccccc1C(=O)Nc1ncc([N+](=O)[O-])s1 [B-81, 2-(N-Methylsulfamoyl)-N-(5-nitrothiazol-2-yl)benzamide] | 20 to 100
30 | CN(C)S(=O)(=O)c1ccccc1C(=O)Nc1ncc([N+](=O)[O-])s1 [B-82, 2-(N,N-dimethylsulfamoyl)-N-(5-nitrothiazol-2-yl)benzamide] | 20 to 100
31 | CC(C)c1ccccc1C(=O)Nc1ncc([N+](=O)[O-])s1 [B-84, 2-Isopropyl-N-(5-nitrothiazol-2-yl)benzamide] | < 20
32 | O=C(Nc1ncc([N+](=O)[O-])s1)c1ccccc1C1CC1 [B-85, 2-cyclopropyl-N-(5-nitrothiazol-2-yl)benzamide] | 20 to 100
33 | O=C(Nc1ncc([N+](=O)[O-])s1)c1ccccc1-c1ccccc1 [B-86, N-(5-Nitrothiazol-2-yl)-[1,1′-biphenyl]-2-carboxamide] | < 20
34 | O=C(O)CCc1ccccc1C(=O)Nc1ncc([N+](=O)[O-])s1 [B-88, 3-(2-((5-Nitrothiazol-2-yl)carbamoyl)phenyl)propanoic acid] | 20 to 100
35 | O=C(Nc1ncc([N+](=O)[O-])s1)c1ccccc1C(F)(F)F [B-89, N-(5-Nitrothiazol-2-yl)-2-(trifluoromethyl)benzamide] | 20 to 100
36 | O=C(Nc1ncc([N+](=O)[O-])s1)c1ccccc1Br [B-93, 2-Bromo-N-(5-nitrothiazol-2-yl)benzamide] | 20 to 100
37 | CC(=O)Oc1cc(NC2CCOCC2)ccc1C(=O)Nc1ncc([N+](=O)[O-])s1 [B-96, 2-((5-Nitrothiazol-2-yl)carbamoyl)-5-((tetrahydro-2H-pyran-4-yl)amino)phenyl acetate] | 20 to 100
38 | CCOc1cc(NC2CCOC2)ccc1C(=O)Nc1ncc([N+](=O)[O-])s1 (centres unmarked) [B-97, 2-Ethoxy-N-(5-nitrothiazol-2-yl)-4-((tetrahydrofuran-3-yl)amino)benzamide] | > 100
39 | CCOc1cc(NC2CCOCC2)ccc1C(=O)Nc1ncc([N+](=O)[O-])s1 [B-98, 2-Ethoxy-N-(5-nitrothiazol-2-yl)-4-((tetrahydro-2H-pyran-4-yl)amino)benzamide] | 20 to 100
40 | O=C1CCCCN1c1ncc([N+](=O)[O-])s1 [B-99, 1-(5-Nitrothiazol-2-yl)piperidin-2-one] | 20 to 100
41 | O=C1CCCCCN1c1ncc([N+](=O)[O-])s1 [B-100, 1-(5-Nitrothiazol-2-yl)azepan-2-one] | 20 to 100
42 | O=C1CCCCCCN1c1ncc([N+](=O)[O-])s1 [B-101, 1-(5-Nitrothiazol-2-yl)azocan-2-one] | 20 to 100
43 | CCOc1ccccc1C(=O)N(C)c1ncc([N+](=O)[O-])s1 [B-102, 2-Ethoxy-N-methyl-N-(5-nitrothiazol-2-yl)benzamide] | < 20
44 | CC(C)COc1ccccc1C(=O)N(C)c1ncc([N+](=O)[O-])s1 [B-103, 2-Isobutoxy-N-methyl-N-(5-nitrothiazol-2-yl)benzamide] | 20 to 100
45 | CCCc1ccccc1C(=O)N(C)c1ncc([N+](=O)[O-])s1 [B-104, N-Methyl-N-(5-nitrothiazol-2-yl)-2-propylbenzamide] | 20 to 100
46 | CN(C(=O)c1ccccc1CCC(F)(F)F)c1ncc([N+](=O)[O-])s1 [B-105, N-Methyl-N-(5-nitrothiazol-2-yl)-2-(3,3,3-trifluoropropyl)benzamide] | > 100
47 | CC(C)Cc1ccccc1C(=O)N(C)c1ncc([N+](=O)[O-])s1 [B-106, 2-Isobutyl-N-methyl-N-(5-nitrothiazol-2-yl)benzamide] | < 20
48 | CCCCNc1ccc(C(=O)N(C)c2ncc([N+](=O)[O-])s2)c(OCC)c1 [B-107, 4-(Butylamino)-2-ethoxy-N-methyl-N-(5-nitrothiazol-2-yl)benzamide] | 20 to 100
49 | CCCCNc1ccc(C(=O)Nc2ncc([N+](=O)[O-])s2)c(Nc2ccccc2)c1 [B-108, 4-(Butylamino)-N-(5-nitrothiazol-2-yl)-2-(phenylamino)benzamide] | 20 to 100
50 | CCCCNc1ccc(C(=O)Nc2ncc([N+](=O)[O-])s2)c(C(C)C)c1 [B-109, 4-(Butylamino)-2-isopropyl-N-(5-nitrothiazol-2-yl)benzamide] | 20 to 100
